Source: patent US20240116985A1, “STAPLED PEPTIDES AND METHODS THEREOF” (priority 2020, published 2024)

How the values were obtained:
[1] = target: T1, full-length beta-Catenin (Uniprot ID P35222) (Homo sapiens, UniProt P35222); experiment: Fluorescence polarization IC50 (beta-catenin / 5FAM-TCF4 10-53 competition); format: binding; settings: fluorescence polarization; read-out: beta-Catenin FP IC50
T1 construct: 10 nM full-length beta-Catenin (Uniprot ID P35222)
T1 sequence (P35222 1-781): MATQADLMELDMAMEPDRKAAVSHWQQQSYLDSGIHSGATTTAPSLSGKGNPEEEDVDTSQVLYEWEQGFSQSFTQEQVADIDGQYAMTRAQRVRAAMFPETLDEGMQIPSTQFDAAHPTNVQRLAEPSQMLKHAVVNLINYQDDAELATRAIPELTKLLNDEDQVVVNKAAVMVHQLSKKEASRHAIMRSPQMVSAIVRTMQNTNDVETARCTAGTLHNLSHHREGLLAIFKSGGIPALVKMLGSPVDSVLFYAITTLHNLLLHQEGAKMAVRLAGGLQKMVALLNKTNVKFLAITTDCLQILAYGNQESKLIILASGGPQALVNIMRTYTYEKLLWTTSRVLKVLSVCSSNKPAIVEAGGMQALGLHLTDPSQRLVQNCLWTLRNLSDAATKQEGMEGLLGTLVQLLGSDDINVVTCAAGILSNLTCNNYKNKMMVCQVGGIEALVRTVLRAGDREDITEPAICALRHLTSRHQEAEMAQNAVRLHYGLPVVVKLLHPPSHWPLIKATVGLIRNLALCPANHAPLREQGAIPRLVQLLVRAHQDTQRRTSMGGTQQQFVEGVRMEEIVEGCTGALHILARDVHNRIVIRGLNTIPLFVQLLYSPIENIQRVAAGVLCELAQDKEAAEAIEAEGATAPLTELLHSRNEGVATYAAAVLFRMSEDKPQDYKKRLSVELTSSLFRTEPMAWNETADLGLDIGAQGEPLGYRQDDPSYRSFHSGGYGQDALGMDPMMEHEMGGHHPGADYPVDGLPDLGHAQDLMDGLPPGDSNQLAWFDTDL

[2] = target: T2, beta-catenin/TCF4 engagement (Homo sapiens, UniProt P35222); experiment: Nano-BRET target engagement assay (B-cat-Halo & TCF4-Luc in HEK293 cells); format: cell-based; settings: read-out: NanoBRET Abs IC50
T2 construct: expressed in transfected cells; host or cells: HEK293
T2 sequence (P35222 1-781): T1 sequence (P35222 1-781)

Row | SMILES | IC50 [1] [nM] | IC50 [2] [nM]
1 | CC(=O)N1CCC[C@]12CC=CCCCC1(CCCC=CCCCOC(=O)N3CC[C@@](C(=O)N[C@@H](Cc4ccccc4)C(=O)N[C@@H](Cc4csc5ccccc45)C(=O)N[C@@H](Cc4ccccc4)C(N)=O)(C3)NC(=O)[C@H](CC(N)=O)NC(=O)[C@H](Cc3ccccc3)NC(=O)[C@H](C)NC(=O)[C@H](CCCCNC(C)C)NC(=O)[C@H](CCC(N)=O)NC(=O)[C@H](CC(=O)O)NC1=O)NC(=O)[C@H](CC1CCCCC1)NC(=O)[C@H](CC(N)=O)NC2=O (stereo partly drawn) [I-2068, Ac-PL3-Asn-Cha-B5-Asp-Gln-iPrLys-Ala-Phe-Asn-PyrS2-Phe-BztA-Phe-NH2] | 338 | > 20000
2 | CC(=O)N1CCC[C@]12CC=CCCCC1(CCCC=CCCCOC(=O)N3CC[C@@](C(=O)N[C@@H](Cc4ccccc4)C(=O)N[C@@H](Cc4csc5ccccc45)C(=O)N[C@@H](C)C(N)=O)(C3)NC(=O)[C@H](CC(N)=O)NC(=O)[C@H](Cc3ccccc3)NC(=O)[C@H](C)NC(=O)[C@H](Cc3c[nH]cn3)NC(=O)[C@H](CCC(N)=O)NC(=O)[C@H](CC(=O)O)NC1=O)NC(=O)[C@H](CC1CCCCC1)NC(=O)[C@H](CC(N)=O)NC2=O (stereo partly drawn) [I-2069, Ac-PL3-Asn-Cha-B5-Asp-Gln-His-Ala-Phe-Asn-PyrS2-Phe-BztA-Ala-NH2] | 256 | > 20000
3 | CC(=O)N1CCC[C@]12CC=CCCCC1(CCCC=CCCCOC(=O)N3CC[C@@](C(=O)N[C@@H](Cc4ccccc4)C(=O)N[C@@H](Cc4csc5ccccc45)C(=O)N[C@@H](C)C(N)=O)(C3)NC(=O)[C@H](CC(N)=O)NC(=O)[C@H](Cc3ccccc3)NC(=O)[C@H](C)NC(=O)[C@H](CCC(N)=O)NC(=O)[C@H](CCC(N)=O)NC(=O)[C@H](CC(=O)O)NC1=O)NC(=O)[C@H](CC1CCCCC1)NC(=O)[C@H](CC(N)=O)NC2=O (stereo partly drawn) [I-2070, Ac-PL3-Asn-Cha-B5-Asp-Gln-Gln-Ala-Phe-Asn-PyrS2-Phe-BztA-Ala-NH2] | 190 | > 20000
4 | CC(=O)N1CCC[C@]12CC=CCCCC1(CCCC=CCCCOC(=O)N3CC[C@@](C(=O)N[C@@H](Cc4ccsc4)C(=O)N[C@@H](Cc4csc5ccccc45)C(=O)N[C@@H](CCC(N)=O)C(N)=O)(C3)NC(=O)[C@H](CC(C)C)NC(=O)[C@H](Cc3ccccc3)NC(=O)[C@H](C)NC(=O)[C@H](C)NC(=O)[C@H](CCn3cc(-c4ccccc4C(=O)O)nn3)NC(=O)[C@H](CC(=O)O)NC1=O)NC(=O)[C@H](CC(C)(C)C)NC(=O)[C@H](CC(=O)O)NC2=O (stereo partly drawn) [I-2080, Ac-PL3-Asp-Npg-B5-Asp-[2COOHPh]TriAzDab-Ala-Ala-Phe-Leu-PyrS2-3Thi-BztA-Gln-NH2] | 45 | 28800
5 | CC(=O)N1CCC[C@]12CC=CCCCC1(CCCC=CCCCOC(=O)N3CC[C@@](C(=O)N[C@@H](Cc4ccsc4)C(=O)N[C@@H](Cc4csc5ccccc45)C(=O)N[C@@H](CCC(N)=O)C(N)=O)(C3)NC(=O)[C@H](CC(C)C)NC(=O)[C@H](Cc3ccccc3)NC(=O)[C@H](C)NC(=O)[C@H](C)NC(=O)[C@H](CCn3cc(-c4ccccc4C(=O)O)nn3)NC(=O)[C@H](CC(=O)O)NC1=O)NC(=O)[C@H](CC(C)(C)C)NC(=O)[C@H](CC(=O)O)NC2=O (stereo partly drawn) [I-2081, Ac-PL3-Asp-Npg-B5-Asp-[2COOHPh]TriAzDab-Ala-Ala-Phe-Leu-PyrS2-3Thi-BztA-Gln-NH2] | 13 | 11600
6 | CC(=O)N1CCC[C@]12CC=CCCCC1(CCCC=CCCCOC(=O)N3CC[C@@](C(=O)N[C@@H](Cc4ccsc4)C(=O)N[C@@H](Cc4csc5ccccc45)C(=O)N[C@@H](CCC(N)=O)C(N)=O)(C3)NC(=O)[C@H](CC(C)C)NC(=O)[C@H](Cc3ccccc3)NC(=O)[C@H](C)NC(=O)[C@H](C)NC(=O)[C@H](CNc3ccc(N)cc3C(=O)O)NC(=O)[C@H](CC(=O)O)NC1=O)NC(=O)[C@H](CC(C)(C)C)NC(=O)[C@H](CC(=O)O)NC2=O (stereo partly drawn) [I-2087, Ac-PL3-Asp-Npg-B5-Asp-[2COOH4NH2Ph]Dap-Ala-Ala-Phe-Leu-PyrS2-3Thi-BztA-Gln-NH2] | 26 | 6500

The remaining lines, values ahead:

Row | IC50 [1] [nM] | IC50 [2] [nM] | SMILES
7 | 16 | 14100 | CC(=O)N1CCC[C@]12CC=CCCCC1(CCCC=CCCCOC(=O)N3CC[C@@](C(=O)N[C@@H](Cc4ccsc4)C(=O)N[C@@H](Cc4csc5ccccc45)C(=O)N[C@@H](CCC(N)=O)C(N)=O)(C3)NC(=O)[C@H](CC(C)C)NC(=O)[C@H](Cc3ccccc3)NC(=O)[C@H](C)NC(=O)[C@H](C)NC(=O)[C@H](CCn3cc(CCC(=O)O)nn3)NC(=O)[C@H](CC(=O)O)NC1=O)NC(=O)[C@H](CC(C)(C)C)NC(=O)[C@H](CC(=O)O)NC2=O (stereo partly drawn) [I-2076, Ac-PL3-Asp-Npg-B5-Asp-[CH2CH2CO2H]TriAzDab-Ala-Ala-Phe-Leu-PyrS2-3Thi-BztA-Gln-NH2]
8 | 5 | 11700 | CC(=O)N1CCC[C@]12CC=CCCCC1(CCCC=CCCCOC(=O)N3CC[C@@](C(=O)N[C@@H](Cc4ccsc4)C(=O)N[C@@H](Cc4csc5ccccc45)C(=O)N[C@@H](CCC(N)=O)C(N)=O)(C3)NC(=O)[C@H](CC(C)C)NC(=O)[C@H](Cc3ccccc3)NC(=O)[C@H](C)NC(=O)[C@H](C)NC(=O)[C@H](CCn3cc(CC(=O)O)nn3)NC(=O)[C@H](CC(=O)O)NC1=O)NC(=O)[C@H](CC(C)(C)C)NC(=O)[C@H](CC(=O)O)NC2=O (stereo partly drawn) [I-2078, Ac-PL3-Asp-Npg-B5-Asp-[CH2CO2H]TriAzDab-Ala-Ala-Phe-Leu-PyrS2-3Thi-BztA-Gln-NH2]
9 | 8 | 15100 | CC(=O)N1CCC[C@]12CC=CCCCC1(CCCC=CCCCOC(=O)N3CC[C@@](C(=O)N[C@@H](Cc4ccsc4)C(=O)N[C@@H](Cc4csc5ccccc45)C(=O)N[C@@H](CCC(N)=O)C(N)=O)(C3)NC(=O)[C@H](CC(C)C)NC(=O)[C@H](Cc3ccccc3)NC(=O)[C@H](C)NC(=O)[C@H](C)NC(=O)[C@H](CCn3cc(C(C)(C)C(=O)O)nn3)NC(=O)[C@H](CC(=O)O)NC1=O)NC(=O)[C@H](CC(C)(C)C)NC(=O)[C@H](CC(=O)O)NC2=O (stereo partly drawn) [I-2079, Ac-PL3-Asp-Npg-B5-Asp-[CMe2CO2H]TriAzDab-Ala-Ala-Phe-Leu-PyrS2-3Thi-BztA-Gln-NH2]
10 | 5 | 7700 | CC(=O)N1CCC[C@]12CC=CCCCC1(CCCC=CCCCOC(=O)N3CC[C@@](C(=O)N[C@@H](Cc4ccsc4)C(=O)N[C@@H](Cc4csc5ccccc45)C(=O)N[C@@H](CCC(N)=O)C(N)=O)(C3)NC(=O)[C@H](CC(C)C)NC(=O)[C@H](Cc3ccccc3)NC(=O)[C@H](C)NC(=O)[C@H](C)NC(=O)[C@H](Cn3cc(CCC(=O)O)nn3)NC(=O)[C@H](CC(=O)O)NC1=O)NC(=O)[C@H](CC(C)(C)C)NC(=O)[C@H](CC(=O)O)NC2=O (stereo partly drawn) [I-2082, Ac-PL3-Asp-Npg-B5-Asp-[CH2CH2CO2H]TriAzDap-Ala-Ala-Phe-Leu-PyrS2-3Thi-BztA-Gln-NH2]
11 | 5 | 3700 | CC(=O)N1CCC[C@]12CC=CCCCC1(CCCC=CCCCOC(=O)N3CC[C@@](C(=O)N[C@@H](Cc4ccsc4)C(=O)N[C@@H](Cc4csc5ccccc45)C(=O)N[C@@H](CCC(N)=O)C(N)=O)(C3)NC(=O)[C@H](CC(C)C)NC(=O)[C@H](Cc3ccccc3)NC(=O)[C@H](C)NC(=O)[C@H](C)NC(=O)[C@H](Cn3cc(CC(C)(C)C(=O)O)nn3)NC(=O)[C@H](CC(=O)O)NC1=O)NC(=O)[C@H](CC(C)(C)C)NC(=O)[C@H](CC(=O)O)NC2=O (stereo partly drawn) [I-2083, Ac-PL3-Asp-Npg-B5-Asp-[CH2CMe2CO2H]TriAzDap-Ala-Ala-Phe-Leu-PyrS2-3Thi-BztA-Gln-NH2]
12 | 5 | 6200 | CC(=O)N1CCC[C@]12CC=CCCCC1(CCCC=CCCCOC(=O)N3CC[C@@](C(=O)N[C@@H](Cc4ccsc4)C(=O)N[C@@H](Cc4csc5ccccc45)C(=O)N[C@@H](CCC(N)=O)C(N)=O)(C3)NC(=O)[C@H](CC(C)C)NC(=O)[C@H](Cc3ccccc3)NC(=O)[C@H](C)NC(=O)[C@H](C)NC(=O)[C@H](Cn3cc(C(C)(C)C(=O)O)nn3)NC(=O)[C@H](CC(=O)O)NC1=O)NC(=O)[C@H](CC(C)(C)C)NC(=O)[C@H](CC(=O)O)NC2=O (stereo partly drawn) [I-2085, Ac-PL3-Asp-Npg-B5-Asp-[CMe2CO2H]TriAzDap-Ala-Ala-Phe-Leu-PyrS2-3Thi-BztA-Gln-NH2]
13 | 12 | 16400 | CC(=O)N1CCC[C@]12CC=CCCCC1(CCCC=CCCCOC(=O)N3CC[C@@](C(=O)N[C@@H](Cc4ccsc4)C(=O)N[C@@H](Cc4csc5ccccc45)C(=O)N[C@@H](CCC(N)=O)C(N)=O)(C3)NC(=O)[C@H](CC(C)C)NC(=O)[C@H](Cc3ccccc3)NC(=O)[C@H](C)NC(=O)[C@H](C)NC(=O)[C@H](Cn3cc(-c4ccccc4C(=O)O)nn3)NC(=O)[C@H](CC(=O)O)NC1=O)NC(=O)[C@H](CC(C)(C)C)NC(=O)[C@H](CC(=O)O)NC2=O (stereo partly drawn) [I-2086, Ac-PL3-Asp-Npg-B5-Asp-[2COOHPh]TriAzDap-Ala-Ala-Phe-Leu-PyrS2-3Thi-BztA-Gln-NH2]
